Data taken from ChEMBL document CHEMBL1201862, “PubChem BioAssay data set” (2004).
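Exposure lasted 48 hours, with cells grown in 96-well plates and compounds tested at five concentrations. Abbreviation: GI50, concentration required for 50% inhibition of growth.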 The source made the active and inactive calls. Rule as the data show it: active = GI50 up to about 1.1 µM and inactive = higher.

How the values were obtained:
Assay in all cases: NCI anticancer screen, dose series, 48 h
Hs-578T = test system: Hs-578T
SK-MEL-5 = test system: SK-MEL-5
SW-620 = test system: SW-620
SNB-19 = test system: SNB-19
SK-MEL-28 = test system: SK-MEL-28
MDA-MB-435 = test system: MDA-MB-435
RPMI-8226 = test system: RPMI-8226
NCI-H226 = test system: NCI-H226
A549 = test system: A549
HCT-116 = test system: HCT-116
OVCAR-5 = test system: OVCAR-5
SK-OV-3 = test system: SK-OV-3
SN12C = test system: SN12C
SK-MEL-2 = test system: SK-MEL-2
BT-549 = test system: BT-549
OVCAR-8 = test system: OVCAR-8
TK-10 = test system: TK-10
UO-31 = test system: UO-31
M14 = test system: M14
KM12 = test system: KM12

| SMILES | GI50 (Hs-578T) | GI50 (SK-MEL-5) | GI50 (SW-620) | GI50 (SNB-19) | GI50 (SK-MEL-28) | GI50 (MDA-MB-435) | GI50 (RPMI-8226) | GI50 (NCI-H226) | GI50 (A549) | GI50 (HCT-116) | GI50 (OVCAR-5) | GI50 (SK-OV-3) | GI50 (SN12C) | GI50 (SK-MEL-2) | GI50 (BT-549) | GI50 (OVCAR-8) | GI50 (TK-10) | GI50 (UO-31) | GI50 (M14) | GI50 (KM12) |
| --- | --- | --- | --- | --- | --- | --- | --- | --- | --- | --- | --- | --- | --- | --- | --- | --- | --- | --- | --- | --- |
| CC(C)Cc1ccc(C(C)/C=C2\CCC(CN3CCCCC3)C2=O)cc1 (centres undefined) | 4.71 µM (inactive) | 13.5 µM (inactive) | 3.45 µM (inactive) | 12 µM (inactive) | 3.21 µM (inactive) | 13.6 µM (inactive) | 0.611 µM (active) | 14.7 µM (inactive) | 20 µM (inactive) | 3.87 µM (inactive) | 17.4 µM (inactive) | 20.5 µM (inactive) | 2.12 µM (inactive) | 13.3 µM (inactive) | 18.5 µM (inactive) | 5.18 µM (inactive) | 3.27 µM (inactive) | 10.6 µM (inactive) | 6.1 µM (inactive) | 2.56 µM (inactive) |
| C=C(C(=O)O[C@H]1C/C(C)=C/CC/C(CO)=C/[C@H]2C(=O)OC(=C)[C@H]12)C(O)CO (some centres undefined) | 23.5 µM (inactive) | 15.5 µM (inactive) | 3.71 µM (inactive) | 21.4 µM (inactive) | 14.5 µM (inactive) | 9.59 µM (inactive) | 2 µM (inactive) | 17.9 µM (inactive) | 22.9 µM (inactive) | 7.18 µM (inactive) | 17.3 µM (inactive) | 18.5 µM (inactive) | 15.3 µM (inactive) | 15.6 µM (inactive) | 14.4 µM (inactive) | 15.2 µM (inactive) | 7.93 µM (inactive) | 8.18 µM (inactive) | 12.2 µM (inactive) | 20.4 µM (inactive) |
| C[N+]1(C)CCOC(O)(c2ccccc2)C1 (centres undefined) | > 100 µM (inactive) | > 100 µM (inactive) | > 100 µM (inactive) | > 100 µM (inactive) | > 100 µM (inactive) | > 100 µM (inactive) | > 100 µM (inactive) | > 100 µM (inactive) | > 100 µM (inactive) | > 100 µM (inactive) | > 100 µM (inactive) | > 100 µM (inactive) | > 100 µM (inactive) | > 100 µM (inactive) | > 100 µM (inactive) | > 100 µM (inactive) | > 100 µM (inactive) | > 100 µM (inactive) | > 100 µM (inactive) | > 100 µM (inactive) |
| CCCN1C(=O)/C(=C\c2ccc(OC)c(OC)c2)S/C1=N\c1ccccc1 | 44.4 µM (inactive) | > 100 µM (inactive) | > 100 µM (inactive) | 27.5 µM (inactive) | > 100 µM (inactive) | > 100 µM (inactive) | > 100 µM (inactive) | > 100 µM (inactive) | > 100 µM (inactive) | > 100 µM (inactive) | > 100 µM (inactive) | 27.9 µM (inactive) | > 100 µM (inactive) | 52.8 µM (inactive) | 87.9 µM (inactive) | > 100 µM (inactive) | 31.1 µM (inactive) | > 100 µM (inactive) | > 100 µM (inactive) | > 100 µM (inactive) |
| COc1cc2c(cc1C[C@H]1[C@@H]3C[C@H]4c5c(c6ccccc6n5C)C[C@@H]([C@@H]3CO[C@]1(C)OC(C)=O)N4C)c1c(n2C)C2C[C@H]3C(C(C)=O)=COC[C@H]3[C@H](C1)N2C | 2.8 µM (inactive) | 3.54 µM (inactive) | 4.13 µM (inactive) | 5.2 µM (inactive) | 9.91 µM (inactive) | > 25 µM (inactive) | 0.764 µM (active) | 5.46 µM (inactive) | > 25 µM (inactive) | 2.5 µM (inactive) | 4.35 µM (inactive) | 11.1 µM (inactive) | 6.24 µM (inactive) | 4.86 µM (inactive) | 3.29 µM (inactive) | 3.66 µM (inactive) | 3.62 µM (inactive) | 6.27 µM (inactive) | 3.11 µM (inactive) | 2 µM (inactive) |
| CNC(=O)OCc1c(COC(=O)NC)c(-c2ccc(-c3ccccc3)cc2)n(C)c1C | 11 µM (inactive) | 3.1 µM (inactive) | 5.48 µM (inactive) | 3.33 µM (inactive) | 10.9 µM (inactive) | 5.41 µM (inactive) | 0.467 µM (active) | 7.98 µM (inactive) | 1.9 µM (inactive) | 2.64 µM (inactive) | 2.35 µM (inactive) | 2.88 µM (inactive) | 0.726 µM (active) | 0.494 µM (active) | 1.21 µM (inactive) | 2.26 µM (inactive) | 3.15 µM (inactive) | 1.18 µM (inactive) | 1.47 µM (inactive) | 8.04 µM (inactive) |
| COc1cc2c(cc1OC)C1=Cc3ccc(OC)c(OC)c3C(C#N)N1CC2 (centres undefined) | 35.8 µM (inactive) | 17.2 µM (inactive) | 47.6 µM (inactive) | 41.3 µM (inactive) | 32.4 µM (inactive) | 25.9 µM (inactive) | 20.7 µM (inactive) | > 100 µM (inactive) | 56.4 µM (inactive) | 36.1 µM (inactive) | > 100 µM (inactive) | > 100 µM (inactive) | 35.2 µM (inactive) | 19.7 µM (inactive) | 14.6 µM (inactive) | – | > 100 µM (inactive) | > 100 µM (inactive) | 50.2 µM (inactive) | 21.1 µM (inactive) |
